Activity calls are given as the source filed them. The calls are words filed in the database; no cut-off is given here.
Legend:
Rattus norvegicus [1] = test: Anti-inflammatory effect expressed as % inhibition at 50 mg/kg in acute carrageenan paw edema test in rats; No inhibition; assay type: functional, organism-based; design: dose 50 mg/kg
Mus musculus [2] = test: General behavior in mice after oral administration (1000 mg/kg) using acute toxicity assay; convulsions; assay type: functional, organism-based
[3] = Percent mortality in mice after oral administration (1000 mg/kg) using acute toxicity assay; assay type: organism-based; conditions: mouse, in vivo
Mus musculus [4] = organism: Mus musculus; test: Analgesic activity in mice using p-phenylquinone test.; assay type: functional
Rattus norvegicus [5] = test: Anti-inflammatory effect expressed as % inhibition at 50 mg/kg in acute carrageenan paw edema test in rats; assay type: functional
[6] = Percent mortality in mice after oral administration (500 mg/kg) using acute toxicity assay; assay type: organism-based; conditions: mouse, in vivo
Mus musculus [7] = test: General behavior in mice after oral administration (500 mg/kg) using acute toxicity assay; Convulsions; assay type: functional, organism-based
[8] = Percent mortality in mice after oral administration (750 mg/kg) using acute toxicity assay; assay type: organism-based; conditions: mouse, in vivo
Mus musculus [9] = test: General behavior in mice after oral administration (750 mg/kg) using acute toxicity assay; Convulsions; assay type: functional, organism-based
Rattus norvegicus [10] = test: Anti-inflammatory effect expressed as % inhibition at 100 mg/kg in acute carrageenan paw edema test in rats; assay type: functional
Mus musculus [11] = test: General behavior in mice after oral administration (1000 mg/kg) using acute toxicity assay; Normal; assay type: functional, organism-based
Mus musculus [12] = test: General behavior in mice after oral administration (500 mg/kg) using acute toxicity assay; Increased muscular tonus; assay type: functional, organism-based
Mus musculus [13] = test: General behavior in mice after oral administration (1000 mg/kg) using acute toxicity assay; Convulsions; assay type: functional, organism-based
Rattus norvegicus [14] = test: Anti-inflammatory effect expressed as % inhibition at 100 mg/kg in acute carrageenan paw edema test in rats; No inhibition; assay type: functional, organism-based; design: dose 100 mg/kg
Mus musculus [15] = test: General behavior in mice after oral administration (1000 mg/kg) using acute toxicity assay; sedation, decreased muscular tonus; assay type: functional, organism-based
Mus musculus [16] = test: General behavior in mice after oral administration (1000 mg/kg) using acute toxicity assay; Increased locomotor activity, convulsive tendency; assay type: functional, organism-based
Mus musculus [17] = test: General behavior in mice after oral administration (1000 mg/kg) using acute toxicity assay; decreased locomotor activity, increased muscular tonus; assay type: functional, organism-based
Mus musculus [18] = test: General behavior in mice after oral administration (1000 mg/kg) using acute toxicity assay; normal; assay type: functional, organism-based
Mus musculus [19] = test: General behavior in mice after oral administration (1000 mg/kg) using acute toxicity assay; decreased muscular tonus; assay type: functional, organism-based
Mus musculus [20] = test: General behavior in mice after oral administration (1000 mg/kg) using acute toxicity assay; decreased locomotor activity, decreased muscular tonus; assay type: functional, organism-based
Mus musculus [21] = test: General behavior in mice after oral administration (1000 mg/kg) using acute toxicity assay; Increased muscular tonus; assay type: functional, organism-based

| Structure (SMILES) | mortality [3] | ED50 (Mus musculus [4]) | inhibition in vivo at 50 mg/kg (Rattus norvegicus [5]) | also measured |
| --- | --- | --- | --- | --- |
| O=c1oc2cccnc2n1CCCN1CCN(c2cccc(C(F)(F)F)c2)CC1 | 50% | 22 mg/kg |  | inhibition (Rattus norvegicus [1]): inactive; Behavior (Mus musculus [2]): convulsions |
| O=c1oc2cccnc2n1CN1CCN(c2cccc(Cl)c2)CC1 |  | 10.5 mg/kg | 27% | mortality [6]: 100%; Behavior (Mus musculus [7]): Convulsions |
| COc1ccccc1N1CCN(Cn2c(=O)oc3cccnc32)CC1 |  | > 25 mg/kg | 15% | mortality [6]: 100%; Behavior (Mus musculus [7]): Convulsions |
| O=c1oc2cccnc2n1CN1CCN(c2ccc(Cl)cc2)CC1 |  | 10.6 mg/kg | 23% | mortality [6]: 90%; Behavior (Mus musculus [7]): Convulsions |
| COc1ccc2c3c1O[C@H]1[C@@H](O)C=C[C@H]4[C@@H](C2)N(C)CC[C@@]341 [CODEINE] |  | 9.7 mg/kg | 20% | mortality [8]: 40%; Behavior (Mus musculus [9]): Active |
| O=c1oc2cccnc2n1CN1CCN(c2ccccc2Cl)CC1 |  | 22.2 mg/kg |  | inhibition (Rattus norvegicus [1]): inactive; mortality [6]: 100%; Behavior (Mus musculus [7]): Convulsions |
| Cc1ccc2oc(=O)n(CCN3CCN(c4ccccc4)CC3)c2n1 | 0% | > 50 mg/kg |  | inhibition in vivo at 100 mg/kg (Rattus norvegicus [10]): 2%; Behavior (Mus musculus [11]): Normal |
| O=c1oc2cccnc2n1CN1CCN(c2cccc(C(F)(F)F)c2)CC1 |  | 3.6 mg/kg | 25% | Behavior (Mus musculus [12]): Increased muscular tonus; mortality [6]: 50% |
| O=c1oc2cccnc2n1CCN1CCN(c2ccccc2)CC1 | 0% | 19.4 mg/kg | 13% | Behavior (Mus musculus [11]): Normal |
| O=c1oc2cccnc2n1CN1CCN(c2ccc(F)cc2)CC1 |  | 3.5 mg/kg |  | mortality [6]: 100%; Behavior (Mus musculus [7]): Convulsions |
| CN1CCN(CCn2c(=O)oc3cccnc32)CC1 | 50% | > 25 mg/kg |  | Behavior (Mus musculus [13]): Convulsions; inhibition (Rattus norvegicus [14]): inactive |
| O=C(OCC(O)CO)c1ccccc1Nc1ccnc2cc(Cl)ccc12 (stereo not drawn) [GLAFENINE] | 30% | 29.3 mg/kg | 36% | Behavior (Mus musculus [11]): inactive |
| O=c1oc2ccccc2n1CCN1CCN(c2cccc(C(F)(F)F)c2)CC1 | 0% | 30.2 mg/kg |  | inhibition (Rattus norvegicus [1]): inactive; Behavior (Mus musculus [11]): Normal |
| O=c1oc2ccccc2n1CCN1CCN(c2ccccc2)CC1 | 0% | > 50 mg/kg | 1% | Behavior (Mus musculus [15]): sedation, decreased muscular tonus |
| CCN(CC)CCn1c(=O)oc2cccnc21 | 83% | > 25 mg/kg |  | Behavior (Mus musculus [13]): Convulsions |
| O=c1oc2cccnc2n1CCCCN1CCN(c2ccccc2)CC1 | 100% | > 25 mg/kg |  | Behavior (Mus musculus [13]): Convulsions |
| O=c1oc2cccnc2n1CCN1CCN(c2cccc(C(F)(F)F)c2)CC1 | 0% | 11.4 mg/kg |  | inhibition (Rattus norvegicus [1]): inactive; Behavior (Mus musculus [16]): Increased locomotor activity, convulsive tendancy |
| O=c1oc2cccnc2n1CCN1CCN(c2ccc(Cl)cc2)CC1 | 0% | > 50 mg/kg |  | Behavior (Mus musculus [17]): decreased locomotor activity, increased muscular tonus |
| O=c1oc2cccnc2n1CCN1CCN(c2ccc(Oc3ccccc3)cc2)CC1 | 0% | > 50 mg/kg |  | Behavior (Mus musculus [18]): normal |
| O=c1oc2cccnc2n1CCN1CCN(c2ccc(F)cc2)CC1 | 0% | 41.3 mg/kg | 16% | Behavior (Mus musculus [19]): decreased muscular tonus |
| O=c1oc2cccnc2n1CN1CCN(c2ccccc2)CC1 |  | 5.9 mg/kg | 11% | mortality [6]: 70%; Behavior (Mus musculus [7]): Convulsions |
| O=c1oc2cccnc2n1CCCN1CCN(c2ccccc2)CC1 | 10% | 15.5 mg/kg | 16% | Behavior (Mus musculus [20]): decreased locomotor activity, decreased muscular tonus |
| O=c1oc2cccnc2n1CCN1CCCCC1 | 66% | > 25 mg/kg |  | Behavior (Mus musculus [2]): convulsions; inhibition in vivo at 100 mg/kg (Rattus norvegicus [10]): 21% |
| COc1ccccc1N1CCN(CCn2c(=O)oc3cccnc32)CC1 | 0% | > 50 mg/kg |  | Behavior (Mus musculus [11]): Normal; inhibition (Rattus norvegicus [14]): inactive |
| O=c1oc2cccnc2n1CCN1CCOCC1 | 50% | > 25 mg/kg |  | inhibition in vivo at 100 mg/kg (Rattus norvegicus [10]): 7%; Behavior (Mus musculus [21]): Increased muscular tonus |
| O=c1oc2cc(Br)cnc2n1CCN1CCN(c2ccccc2)CC1 | 0% | 34.1 mg/kg |  | Behavior (Mus musculus [18]): normal |
